Assay results published in PubChem BioAssay AID1259407 (Chemical Carcinogenesis Research Information System (CCRIS), 2018).
Activity calls are given as the source filed them. No rule for the calls is given here.

Tested on: CCRIS mutagenicity, Ames/micronucleus/aberration tests
Assay: CCRIS mutagenicity studies

Measured: mutagenic call

O=[N+]([O-])c1ccc2c(c1)Cc1ccccc1-2
inactive: End Point: IN VITRO CHROMOSOMAL ABERRATIONS, Test System: CHINESE HAMSTER LUNG (CHL) CELLS, Metabolic Activation: NONE inactive; negative | Test System: AMES SALMONELLA TYPHIMURIUM, Strain/Indicator: TA100(NR), Metabolic Activation: NONE, Method: STANDARD PLATE inactive; negative | Test System: AMES SALMONELLA TYPHIMURIUM, Strain/Indicator: TA100(TN5-1,8-DNP1012), Metabolic Activation: NONE, Method: STANDARD PLATE inactive; negative | Test System: AMES SALMONELLA TYPHIMURIUM, Strain/Indicator: TA1535, Metabolic Activation: NONE, Method: SPIRAL ASSAY inactive; negative
active: End Point: IN VITRO CHROMOSOMAL ABERRATIONS, Test System: CHINESE HAMSTER LUNG (CHL) CELLS, Metabolic Activation: RAT, LIVER, S-9, KC-400 active; positive | End Point: IN VITRO MICRONUCLEUS, Test System: CHL/IU CELLS, Metabolic Activation: NONE active; positive | Test System: AMES SALMONELLA TYPHIMURIUM, Strain/Indicator: TA98 (1,8-DNP6), Metabolic Activation: NONE, Method: PREINCUBATION active; positive | Test System: AMES SALMONELLA TYPHIMURIUM, Strain/Indicator: TA98(1,8-DNP6), Metabolic Activation: NONE, Method: STANDARD PLATE active; positive | Test System: AMES SALMONELLA TYPHIMURIUM, Strain/Indicator: TA98 (NR), Metabolic Activation: NONE, Method: PREINCUBATION active; positive | Test System: AMES SALMONELLA TYPHIMURIUM, Strain/Indicator: TA98(NR), Metabolic Activation: NONE, Method: STANDARD PLATE active; positive | Test System: AMES SALMONELLA TYPHIMURIUM, Strain/Indicator: TA98 (NR), Metabolic Activation: RAT LIVER S-9 (10%), Method: PREINCUBATION active; positive | Test System: AMES SALMONELLA TYPHIMURIUM, Strain/Indicator: TA98 (NR), Metabolic Activation: RAT LIVER S-9, 3-METHYLCHOLANTHRENE (10%), Method: PREINCUBATION active; positive | Test System: AMES SALMONELLA TYPHIMURIUM, Strain/Indicator: TA98 (NR), Metabolic Activation: RAT LIVER S-9, BETA-NAPHTHAFLAVONE (10%), Method: PREINCUBATION active; positive | Test System: AMES SALMONELLA TYPHIMURIUM, Strain/Indicator: TA98(NR), Metabolic Activation: RAT LIVER S-9, PHENOBARBITAL (10%), Method: PREINCUBATION active; positive | Test System: AMES SALMONELLA TYPHIMURIUM, Strain/Indicator: TA98 (NR), Metabolic Activation: RAT LIVER S-9 PCB, 10%, Method: PREINCUBATION active; positive | Test System: AMES SALMONELLA TYPHIMURIUM, Strain/Indicator: TA98, Metabolic Activation: NONE, Method: SPIRAL ASSAY active; positive | Test System: AMES SALMONELLA TYPHIMURIUM, Strain/Indicator: TA98, Metabolic Activation: RAT, LIVER, S-9, AROCLOR 1254, Method: SPIRAL ASSAY active; positive | Test System: AMES SALMONELLA TYPHIMURIUM, Strain/Indicator: TA98, Metabolic Activation: RAT, LIVER, S-9, AROCLOR 1254, Method: STANDARD PLATE active; positive | Test System: AMES SALMONELLA TYPHIMURIUM, Strain/Indicator: TA98, Metabolic Activation: RAT, LIVER, S-9, PCB (10%), Method: PREINCUBATION active; positive | Test System: AMES SALMONELLA TYPHIMURIUM, Strain/Indicator: TA98, Metabolic Activation: S-9, Method: PREINCUBATION active; positive | Test System: AMES SALMONELLA TYPHIMURIUM, Strain/Indicator: TA98, Metabolic Activation: S-9, Method: STANDARD PLATE active; positive | Test System: AMES SALMONELLA TYPHIMURIUM, Strain/Indicator: TA100, Metabolic Activation: NONE, Method: PREINCUBATION active; positive | Test System: AMES SALMONELLA TYPHIMURIUM, Strain/Indicator: TA100, Metabolic Activation: NONE, Method: SPIRAL ASSAY active; positive | Test System: AMES SALMONELLA TYPHIMURIUM, Strain/Indicator: TA100, Metabolic Activation: RAT, LIVER, S-9, AROCLOR 1254, Method: SPIRAL ASSAY active; positive | Test System: AMES SALMONELLA TYPHIMURIUM, Strain/Indicator: TA100, Metabolic Activation: RAT, LIVER, S-9, AROCLOR 1254, Method: STANDARD PLATE active; positive | Test System: AMES SALMONELLA TYPHIMURIUM, Strain/Indicator: TA100, Metabolic Activation: S-9, Method: STANDARD PLATE active; positive | Test System: AMES SALMONELLA TYPHIMURIUM, Strain/Indicator: TA102, Metabolic Activation: NONE, Method: PREINCUBATION active; positive | Test System: AMES SALMONELLA TYPHIMURIUM, Strain/Indicator: TA1535, Metabolic Activation: NONE, Method: PREINCUBATION active; positive
